# Laboratory results from patent publication US8741957B2, “Alpha-aminoamide derivatives useful in the treatment of cognitive disorders” (priority 2006, dated 2014).
# How the values were obtained:
# [1] = system: early and moderate-to-advanced PD patients; settings: 1 mg dose once daily; cited from earlier work
# [2] = system: glutamate release; settings: in condition of pathological glutamate overflow; cited from earlier work
# [3] = system: animal models; settings: cited from earlier work
# [4] = target: T1, MAO-A (Homo sapiens, UniProt P21397); settings: cited from earlier work
# T1 sequence (P21397 1-527): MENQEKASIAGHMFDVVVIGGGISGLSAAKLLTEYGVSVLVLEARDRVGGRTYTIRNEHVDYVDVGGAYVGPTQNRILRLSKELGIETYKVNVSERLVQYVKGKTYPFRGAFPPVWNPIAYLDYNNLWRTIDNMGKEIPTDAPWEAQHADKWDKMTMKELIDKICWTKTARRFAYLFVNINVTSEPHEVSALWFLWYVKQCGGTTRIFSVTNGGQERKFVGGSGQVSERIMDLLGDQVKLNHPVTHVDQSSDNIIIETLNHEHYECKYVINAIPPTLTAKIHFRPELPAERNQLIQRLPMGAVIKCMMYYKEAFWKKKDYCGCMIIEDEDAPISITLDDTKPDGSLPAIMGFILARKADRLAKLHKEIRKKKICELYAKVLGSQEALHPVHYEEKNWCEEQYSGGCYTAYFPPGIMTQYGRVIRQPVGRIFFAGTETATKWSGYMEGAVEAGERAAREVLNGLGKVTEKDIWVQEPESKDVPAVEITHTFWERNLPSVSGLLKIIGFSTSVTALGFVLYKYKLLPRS
# [5] = system: PD patients; settings: after 3 month treatment; cited from earlier work
# [6] = system: non demented patients with early PD; test: UPDRS motor scores in six month double blind clinical trial; assay type: in vivo, human; settings: safinamide associated to a dopamine agonist, compared to the group treated with the DA alone
# Experimental: A double blind Phase III study, placebo controlled, parallel-group, randomized, multinational was conducted comparing 2 oral doses of Safinamide versus placebo. The placebo group was constituted by patients treated with a stable dose of a dopamine agonist. The dopamine agonist could have been any of the ones used in clinical practice, according to clinical procedures in the different countries. 269 patients (˜90 per arm), were enrolled and treated for six months. Primary efficacy variable was UPDRS III. All the randomized patients were tested for cognitive impairment with Cogtest at Screening, Baseline, week 12 and week 24 (or early discontinuation).
# [7] = system: non demented patients with early PD; test: Cogtest cognitive battery in double blind Phase III study, safinamide added to a dopamine agonist; assay type: in vivo, human
# Text: Cogtest® (Computerized Cognitive Test Battery for Clinical Trials) is designed to provide with the highest quality computerised cognitive tests for use in clinical trials. All cognitive tests in the Cogtest® battery have been developed by academic neuropsychologists and clinical trials specialists. This ensures that the most recent developments in cognitive neuroscience, including neurophysiological, functioning neuroimaging and pharmacogenic evidence are incorporated into the Cogtest® library of procedures and into pharmaceutical clinical trials.
# The Cogtest PD battery has been prepared, based on a review of the available tests in the Cogtest library and selection of those tests that would most usefully comprise a battery suitable for Parkinson's Disease. However the same tasks are used in other pathological conditions for testing the two main domains of cognition, reaction time and power.
# The battery takes from 20-30 minutes to administer, and is applicable across different cultures and countries. The following tests were included in the battery:
# The Auditory Number Sequencing task is a test of working memory and executive function. The participant will be presented with clusters of numbers (e.g. 936) of increasing length (from 2 digits to a maximum of 8 digits). They will be asked to tell the tester the numbers in order, from lowest to highest. […]
# This test is similar to the paper-and-pencil ‘cancellation’ tests or the cross-out’ subtest of the WAIS-III, where subjects are required to crossout target stimuli embedded among distracters. […] The variables measured are: Total Experiment Time (from the end of the ‘Get ready’ screen to the end of the last response, in msec), Total Correct responses, Total Perseverative Errors (erroneous pressing of the shape that was the target of the last set, but is not for this set), Strategic efficiency variable (the cumulative distance of territory transversed, i.e., between the location of correct presses on screen for each set) according to literature (Weintraub, S., & Mesulam, M. M. (1987). Archives of Neurology 44 621-625). […]
# [8] = target: T2, MAO-B (Homo sapiens, UniProt P27338); settings: cited from earlier work
# T2 sequence (P27338 1-520): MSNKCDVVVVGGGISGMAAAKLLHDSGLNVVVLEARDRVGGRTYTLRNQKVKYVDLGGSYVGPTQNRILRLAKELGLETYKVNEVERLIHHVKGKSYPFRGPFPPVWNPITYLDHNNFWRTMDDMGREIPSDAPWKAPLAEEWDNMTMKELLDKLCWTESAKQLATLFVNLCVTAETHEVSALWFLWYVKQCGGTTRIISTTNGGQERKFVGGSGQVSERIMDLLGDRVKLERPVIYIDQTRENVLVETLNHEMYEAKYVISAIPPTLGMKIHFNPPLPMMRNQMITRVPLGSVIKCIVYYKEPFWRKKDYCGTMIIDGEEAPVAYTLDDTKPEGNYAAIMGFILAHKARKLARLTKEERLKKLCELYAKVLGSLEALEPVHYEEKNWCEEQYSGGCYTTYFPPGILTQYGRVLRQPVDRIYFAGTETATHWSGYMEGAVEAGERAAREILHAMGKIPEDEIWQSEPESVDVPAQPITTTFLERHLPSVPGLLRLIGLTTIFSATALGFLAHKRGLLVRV
# [9] = system: glutamate receptors; settings: cited from earlier work
# [10] = system: normal rats; settings: safinamide per se; cited from earlier work
# [11] = system: cholinesterase; settings: cited from earlier work
# [12] = literature reports; cited from earlier work
# [13] = system: mild PD patients; settings: in comparison to levodopa; cited from earlier work
# [14] = in vivo; cited from earlier work
# [15] = system: patients with PD-related Dementia (PDD); settings: cited from earlier work
# [16] = system: early-mild Parkinson's Disease; settings: after eight weeks (end of study); cited from earlier work
smiles,measurement,setting,value
C#CCN[C@@H]1CCc2ccccc21 [rasagiline],occurrence of cognitive and behavioural adverse events,[1],without significantly increasing
same,"symptoms of PD, including motor fluctuations",[1],improved
"C[C@H](NCc1ccc(OCc2cccc(F)c2)cc1)C(N)=O [safinamide, (S)-(+)-2-[4-(3-fluorobenzyloxy)-benzylamino]-propanamide]",glutamate release inhibition,[2],glutamate release inhibitor
same,long term neuroprotective effects,[3],demonstrated
same,activity on MAO-A,[4],devoid of activity
same,UPDRS scores,[5],significantly ameliorated
same,UPDRS scores (motor symptoms),[6],significantly ameliorate
same,"several cognitive variables (Cogtest), change from baseline","[7]; both groups, low and high dose of safinamide, with a stable dose of a DA, three and six months evaluation times, most marked for executive function",significant improvement from baseline
same,"Strategic Target Detection test, observed score (Z-score)","[7]; both treated groups (low and high dose of safinamide), from baseline to both three and six months",significant improvement
same,cognition compared with DA alone (control group) and with pretreatment,"[7]; safinamide associated to a dopamine agonist, check at three and six months after start of treatment",ameliorate cognitive worsening observed in controls and/or improve cognition as compared to pretreatment
same,MAO-B inhibition,[8],selective MAO-B inhibitor
same,affinity for any of the glutamate receptors,[9],no affinity
same,cognition in the rat passive avoidance test,[10],does not ameliorate cognition
same,cholinesterase inhibition,[11],not cholinesterase inhibitors
N[C@@H](Cc1ccc(O)c(O)c1)C(=O)O [levodopa],effect on cognition,[12],"no effect on cognition, or even impairment"
CCCN[C@H]1CCc2nc(N)sc2C1 [pramipexole],short term verbal memory and attentional-executive functions,[13],impaired
same,verbal fluency,[13],slightly but significantly worsened
CN1CCc2cccc3c2[C@H]1Cc1ccc(O)c(O)c1-3 [apomorphine],reaction times in visual-spatial working memory (WM),[14],negative effect
CCN(C)C(=O)Oc1cccc([C@H](C)N(C)C)c1 [rivastigmine],subjective worsening of tremor reported,[15]; in vivo,1.7%
same,patients dropped out due to adverse events,[15]; most commonly due to nausea,17%
same,"response on primary (ADAS-Cog, Clinical Global Impression of Change) and all secondary outcome measures","[15]; versus placebo, differences were moderate",responded better
CCCN1C[C@H](CSC)C[C@@H]2c3cccc4[nH]cc(c34)C[C@H]21 [pergolide],cognitive test scores,[16],without showing amelioration
